Measured values: patent US20100267561A1, “HERBICIDAL PYRIDAZINONE DERIVATIVES” (priority 2007, published 2010)

Key:
Type in all cases: in vivo
[1] = tested on: Russian thistle (Salsola iberica); experiment: Test B pre-/postemergence plant response; settings: Preemergence
Procedure, shortened: (§1)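 Visual scoring from 0 (no effect) to 100 (complete control) against untreated controls was done 13 to 15 days after greenhouse treatment. Chemicals were formulated in a surfactant-containing non-phytotoxic solvent and applied to soil preemergence or to 1- to 4-leaf (2-18 cm) plants postemergence.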

[2] = tested on: common (oilseed) sunflower (Helianthus annuus); experiment: Test B pre-/postemergence plant response; settings: Preemergence
Procedure, shortened: as §1

[3] = tested on: downy bromegrass (Bromus tectorum); experiment: Test B pre-/postemergence plant response; settings: for Bromegrass, Downy plant response rating: 8 g ai/ha
Procedure, shortened: as §1

[4] = tested on: eastern black (E.B.) nightshade (Solanum ptycanthum); experiment: Test B pre-/postemergence plant response; settings: Preemergence
Procedure, shortened: as §1

[5] = tested on: giant foxtail (Setaria faberii); experiment: Test B pre-/postemergence plant response; settings: for Foxtail, Giant plant response rating: 8 g ai/ha
Procedure, shortened: as §1

[6] = tested on: goosegrass (Eleusine indica); experiment: Test B pre-/postemergence plant response; settings: for Goosegrass plant response rating: 8 g ai/ha
Procedure, shortened: as §1

[7] = tested on: morningglory (Ipomoea coccinea); experiment: Test B pre-/postemergence plant response; settings: for Morningglory plant response rating: 8 g ai/ha
Procedure, shortened: as §1

soybean (Glycine max) = experiment: Test B pre-/postemergence plant response; settings: for Soybean plant response rating: 8 g ai/ha
Procedure, shortened: as §1

[8] = tested on: surinam grass (Brachiaria decumbens); experiment: Test B pre-/postemergence plant response; settings: for Surinam Grass plant response rating: 8 g ai/ha
Procedure, shortened: as §1

[9] = tested on: wheat (Triticum aestivum); experiment: Test B pre-/postemergence plant response; settings: for Wheat plant response rating: 8 g ai/ha
Procedure, shortened: as §1

[10] = tested on: barnyardgrass (Echinochloa crus-galli); experiment: Test B flooded paddy test plant response
Procedure, shortened: (§2)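 Rice, umbrella sedge, ducksalad and barnyardgrass at 2-leaf stage; pots flooded to 3 cm, compounds applied into paddy water, depth held throughout. Greenhouse 13 to 15 days, then visual rating vs untreated controls on 0–100 scale (0 no effect, 100 complete control); dash means no test result.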

[11] = tested on: ducksalad (Heteranthera limosa); experiment: Test B flooded paddy test plant response
Procedure, shortened: as §2

rice (Oryza sativa) = experiment: Test B flooded paddy test plant response
Procedure, shortened: as §2

[12] = tested on: umbrella sedge (Cyperus difformis); experiment: Test B flooded paddy test plant response
Procedure, shortened: as §2

[13] = 16 g ai/ha, scale 0 to 100 (0 no effect, 100 complete control)
[14] = 31 g ai/ha, 0 to 100 scale, 0 no effect, 100 complete control
[15] = Postemergence, 16 g ai/ha, scale 0 to 100
[16] = Postemergence, 31 g ai/ha, scale 0 to 100, 0 no effect, 100 complete control
[17] = Postemergence, 62 g ai/ha, scale 0 to 100, 0 no effect, 100 complete control
[18] = Preemergence, 16 g ai/ha, scale 0 to 100 (0 no effect, 100 complete control)
[19] = Preemergence, 31 g ai/ha, 0 to 100 scale, 0 no effect, 100 complete control
[20] = Preemergence, 62 g ai/ha, scale 0 to 100
[21] = Flood (flooded paddy test), 62 g ai/ha, scale 0 to 100, 0 no effect, 100 complete control
[22] = Flood (flooded paddy test), 125 g ai/ha, scale 0 to 100, 0 no effect, 100 complete control
[23] = Flood, 31 g ai/ha, scale 0 to 100

SMILES: Cc1cc(-c2ccc(Cl)cc2)nn1-c1c(OS(=O)(=O)c2ccccc2)cnn(C)c1=O [Compound 35]
- Plant response rating, Russian Thistle [1, 13]: 0
- Plant response rating, Russian Thistle [1, 14]: 0
- Plant response rating, Russian Thistle ([1]; 62 g ai/ha, scale 0 to 100): 0
- Russian Thistle plant response rating ([1]; 8 g ai/ha, scale 0 to 100): 0
- Plant response rating, Sunflower [2, 13]: 0
- Plant response rating, Sunflower [2, 14]: 0
- Plant response rating, Sunflower ([2]; 62 g ai/ha, scale 0 to 100): 0
- Sunflower plant response rating ([2]; 8 g ai/ha, scale 0 to 100): 0
- Bromegrass, Downy plant response rating ([3]; postemergence, 0-100 scale): 0
- Plant response rating, Bromegrass, Downy [3, 15]: 20
- Plant response rating, Bromegrass, Downy [3, 16]: 20
- Plant response rating, Bromegrass, Downy [3, 17]: 60
- Plant response rating, Bromegrass, Downy [3, 18]: 40
- Plant response rating, Bromegrass, Downy [3, 19]: 40
- Plant response rating, Bromegrass, Downy [3, 20]: 60
- Bromegrass, Downy plant response rating ([3]; Preemergence, scale 0 to 100): 40
- Plant response rating, Nightshade, E. B. [4, 13]: 0
- Plant response rating, Nightshade, E. B. [4, 14]: 0
- Plant response rating, Nightshade, E. B. ([4]; 62 g ai/ha, scale 0 to 100): 0
- Nightshade, E. B. plant response rating ([4]; 8 g ai/ha, scale 0 to 100): 0
- Foxtail, Giant plant response rating ([5]; postemergence, 0-100 scale): 90
- Plant response rating, Foxtail, Giant [5, 15]: 98
- Plant response rating, Foxtail, Giant [5, 16]: 100
- Plant response rating, Foxtail, Giant [5, 17]: 100
- Plant response rating, Foxtail, Giant [5, 18]: 100
- Plant response rating, Foxtail, Giant [5, 19]: 100
- Plant response rating, Foxtail, Giant [5, 20]: 100
- Foxtail, Giant plant response rating ([5]; Preemergence, scale 0 to 100): 100
- Goosegrass plant response rating ([6]; postemergence, 0-100 scale): 20
- Plant response rating, Goosegrass [6, 15]: 40
- Plant response rating, Goosegrass [6, 16]: 70
- Plant response rating, Goosegrass [6, 17]: 75
- Plant response rating, Goosegrass [6, 18]: 100
- Plant response rating, Goosegrass [6, 19]: 100
- Plant response rating, Goosegrass [6, 20]: 100
- Goosegrass plant response rating ([6]; Preemergence, scale 0 to 100): 80
- Morningglory plant response rating ([7]; postemergence, 0-100 scale): 0
- Plant response rating, Morningglory [7, 15]: 0
- Plant response rating, Morningglory [7, 16]: 0
- Plant response rating, Morningglory [7, 17]: 0
- Plant response rating, Morningglory [7, 18]: 0
- Plant response rating, Morningglory [7, 19]: 0
- Plant response rating, Morningglory [7, 20]: 10
- Morningglory plant response rating ([7]; Preemergence, scale 0 to 100): 0
- Soybean plant response rating (soybean (Glycine max); postemergence, 0-100 scale): 0
- Plant response rating, Soybean (soybean (Glycine max); [15]): 0
- Plant response rating, Soybean (soybean (Glycine max); [17]): 0
- Plant response rating, Soybean (soybean (Glycine max); [18]): 0
- Plant response rating, Soybean (soybean (Glycine max); [19]): 0
- Plant response rating, Soybean (soybean (Glycine max); [20]): 0
- Soybean plant response rating (soybean (Glycine max); Preemergence, scale 0 to 100): 0
- Surinam Grass plant response rating ([8]; postemergence, 0-100 scale): 70
- Plant response rating, Surinam Grass [8, 15]: 95
- Plant response rating, Surinam Grass [8, 17]: 100
- Plant response rating, Surinam Grass [8, 18]: 90
- Plant response rating, Surinam Grass [8, 19]: 100
- Plant response rating, Surinam Grass [8, 20]: 100
- Surinam Grass plant response rating ([8]; Preemergence, scale 0 to 100): 45
- Wheat plant response rating ([9]; postemergence, 0-100 scale): 0
- Plant response rating, Wheat [9, 15]: 35
- Plant response rating, Wheat [9, 17]: 85
- Plant response rating, Wheat [9, 18]: 0
- Plant response rating, Wheat [9, 19]: 0
- Plant response rating, Wheat [9, 20]: 30
- Wheat plant response rating ([9]; Preemergence, scale 0 to 100): 0
- Plant response rating, Barnyardgrass [10, 21]: 0
- Plant response rating, Barnyardgrass [10, 22]: 0
- Plant response rating, Barnyardgrass [10, 23]: 0
- Plant response rating, Ducksalad [11, 21]: 0
- Plant response rating, Ducksalad [11, 22]: 0
- Plant response rating, Ducksalad [11, 23]: 0
- Plant response rating, Rice (rice (Oryza sativa); [21]): 0
- Plant response rating, Rice (rice (Oryza sativa); [22]): 0
- Plant response rating, Rice (rice (Oryza sativa); [23]): 0
- Plant response rating, Sedge, Umbrella [12, 21]: 0
- Plant response rating, Sedge, Umbrella [12, 22]: 0
- Plant response rating, Sedge, Umbrella [12, 23]: 0
